pIC50: −log10 of the molar value.
Experiments:
[1] = tested on: MOLM-14 F691L (endogenous FLT3 ITD and transfected FLT3 F691L); assay: MOLM-14 F691L cell proliferation assay (CellTiter-Glo); assay type: cell-based; details: Homo sapiens, MOLM-14, 72 h; 3 d growth, GMean
Outline: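 MOLM-14 cells (FLT3 ITD) carrying D835Y or F691L, 1×10^4 cells/well, eight 1:3 dilutions from 1 μM final, 0.2% DMSO, 3 days at 37 °C, 5% CO2. Viability by CellTiter-Glo luminescence (ATP content); IC50 from concentration-response.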

FLT3-ITD = target: T1, FLT3-ITD (Homo sapiens, UniProt P36888); assay: FLT3-ITD recombinant enzyme kinase assay (AlphaScreen); assay type: biochemical; details: 8 pt; read-out: FLT3_ITD 8 pt: IC50
T1 sequence (P36888 1-993): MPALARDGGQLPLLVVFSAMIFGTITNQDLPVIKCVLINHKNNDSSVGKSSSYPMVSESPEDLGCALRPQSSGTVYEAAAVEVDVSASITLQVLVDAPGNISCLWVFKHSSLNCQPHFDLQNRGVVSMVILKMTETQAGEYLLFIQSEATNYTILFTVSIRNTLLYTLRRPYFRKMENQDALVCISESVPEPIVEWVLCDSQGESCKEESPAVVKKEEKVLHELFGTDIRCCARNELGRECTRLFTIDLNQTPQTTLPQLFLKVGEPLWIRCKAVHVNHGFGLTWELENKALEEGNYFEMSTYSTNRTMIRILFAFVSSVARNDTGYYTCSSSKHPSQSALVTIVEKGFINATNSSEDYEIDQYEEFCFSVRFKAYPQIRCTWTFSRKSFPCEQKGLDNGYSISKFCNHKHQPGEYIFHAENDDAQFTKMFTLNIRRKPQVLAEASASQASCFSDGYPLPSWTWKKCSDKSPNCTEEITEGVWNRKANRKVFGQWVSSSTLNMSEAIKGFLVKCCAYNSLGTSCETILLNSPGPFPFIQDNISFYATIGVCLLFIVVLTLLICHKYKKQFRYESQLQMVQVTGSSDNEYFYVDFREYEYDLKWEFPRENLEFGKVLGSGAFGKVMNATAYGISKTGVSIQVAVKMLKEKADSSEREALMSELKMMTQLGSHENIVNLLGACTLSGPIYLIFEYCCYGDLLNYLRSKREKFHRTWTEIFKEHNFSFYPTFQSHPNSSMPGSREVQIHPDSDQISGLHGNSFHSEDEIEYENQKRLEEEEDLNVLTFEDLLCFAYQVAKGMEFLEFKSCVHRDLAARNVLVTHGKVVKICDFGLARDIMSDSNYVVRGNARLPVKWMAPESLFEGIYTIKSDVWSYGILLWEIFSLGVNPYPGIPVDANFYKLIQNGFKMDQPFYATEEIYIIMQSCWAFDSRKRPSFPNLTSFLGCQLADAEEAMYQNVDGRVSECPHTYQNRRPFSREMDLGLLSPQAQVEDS
Outline: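 Recombinant kinase phosphorylates 30 nM biotinylated poly(Glu4-Tyr) peptide; ATP is 10 μM for FLT3-ITD and FLT3-D835Y, 100 μM for c-KIT. Phosphotyrosine detected by AlphaScreen (streptavidin donor, PY20 acceptor beads, 10 μg/mL), 580 nm signal after 680 nm excitation; IC50 from signal decrease.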

Row | pIC50 [1] | pIC50 (FLT3-ITD) | SMILES
1 | 5.00 to 10.00 | 5.00 to 10.00 | O=C(Cc1ccc(-c2cnc(Nc3cnn(C4CC4)c3)nc2)cc1)Nc1ccc(C(F)(F)F)nc1 [Compound P-0235, 2-[4-[2-[(1-cyclopropylpyrazol-4-yl)amino]pyrimidin-5-yl]phenyl]-N-[6-(trifluoromethyl)-3-pyridyl]acetamide]
2 | 5.00 to 10.00 | 5.00 to 10.00 | O=C(Cc1ccc(-c2cnc(Nc3cnn(C4CC4)c3)nc2)cc1)Nc1cnc(Cl)c(C(F)(F)F)c1 [Compound P-0233, N-[6-chloro-5-(trifluoromethyl)-3-pyridyl]-2-[4-[2-[(1-cyclopropylpyrazol-4-yl)amino]pyrimidin-5-yl]phenyl]acetamide]
3 | 5.00 to 10.00 | 5.00 to 10.00 | CC(C)(O)C#Cc1cc2cc(-c3ccc(CC(=O)Nc4cncc(C(F)(F)F)c4)cc3)cnc2[nH]1 [Compound P-0204, 2-[4-[2-(3-hydroxy-3-methyl-but-1-ynyl)-1H-pyrrolo[2,3-b]pyridin-5-yl]phenyl]-N-[5-(trifluoromethyl)-3-pyridyl]acetamide]
4 | 5.00 to 10.00 | 5.00 to 10.00 | COCCn1cc(Nc2ncc(-c3ccc(CC(=O)Nc4cc(C(F)(F)F)ccn4)cc3)cn2)cn1 [Compound P-0222, 2-[4-[2-[[1-(2-methoxyethyl)pyrazol-4-yl]amino]pyrimidin-5-yl]phenyl]-N-[4-(trifluoromethyl)-2-pyridyl]acetamide]
5 | 5.00 to 10.00 | 5.00 to 10.00 | Cc1ncc(NC(=O)Cc2ccc(-c3cnc(Nc4cnn(C(F)F)c4)nc3)cc2)cc1C(F)(F)F [Compound P-0210, 2-[4-[2-[[1-(difluoromethyl)pyrazol-4-yl]amino]pyrimidin-5-yl]phenyl]-N-[6-methyl-5-(trifluoromethyl)-3-pyridyl]acetamide]
6 | 5.00 to 10.00 | 5.00 to 10.00 | CCn1cc(Nc2ncc(-c3ccc(CC(=O)Nc4cnc(OC)c(C(F)(F)F)c4)cc3)cn2)cn1 [Compound P-0253, 2-[4-[2-[(1-ethylpyrazol-4-yl)amino]pyrimidin-5-yl]phenyl]-N-[6-methoxy-5-(trifluoromethyl)-3-pyridyl]acetamide]
7 | 5.00 to 10.00 | 5.00 to 10.00 | CCn1cc(Nc2ncc(-c3ccc(CC(=O)Nc4cncc(C(F)(F)F)c4)c(F)c3)cn2)cn1 [Compound P-0258, 2-[4-[2-[(1-ethylpyrazol-4-yl)amino]pyrimidin-5-yl]-2-fluoro-phenyl]-N-[5-(trifluoromethyl)-3-pyridyl]acetamide]
8 | 5.00 to 10.00 | 5.00 to 10.00 | O=C(Cc1ccc(-c2cnc3[nH]c(-c4ccnc(N5CCOCC5)c4)cc3c2)c(F)c1)Nc1cncc(C(F)(F)F)c1 [Compound P-0201, 2-[3-fluoro-4-[2-(2-morpholino-4-pyridyl)-1H-pyrrolo[2,3-b]pyridin-5-yl]phenyl]-N-[5-(trifluoromethyl)-3-pyridyl]acetamide]
9 | 5.00 to 10.00 | 5.00 to 10.00 | O=C(Cc1ccc(-c2cnc(Nc3cnn(C4CC4)c3)nc2)cc1)Nc1cc(C(F)(F)F)ccn1 [Compound P-0237, 2-[4-[2-[(1-cyclopropylpyrazol-4-yl)amino]pyrimidin-5-yl]phenyl]-N-[4-(trifluoromethyl)-2-pyridyl]acetamide]
10 | 5.00 to 10.00 | 5.00 to 10.00 | COc1ncc(NC(=O)Cc2ccc(-c3cnc(Nc4cnn(C(F)F)c4)nc3)cc2)cc1C(F)(F)F [Compound P-0211, 2-[4-[2-[[1-(difluoromethyl)pyrazol-4-yl]amino]pyrimidin-5-yl]phenyl]-N-[6-methoxy-5-(trifluoromethyl)-3-pyridyl]acetamide]
11 | 5.00 to 10.00 | 5.00 to 10.00 | COc1ncc(NC(=O)Cc2ccc(-c3cnc(Nc4cnn(C5CC5)c4)nc3)cc2F)cc1C(F)(F)F [Compound P-0241, 2-[4-[2-[(1-cyclopropylpyrazol-4-yl)amino]pyrimidin-5-yl]-2-fluoro-phenyl]-N-[6-methoxy-5-(trifluoromethyl)-3-pyridyl]acetamide]
12 | 5.00 to 10.00 | 5.00 to 10.00 | CCn1cc(Nc2ncc(-c3ccc(CC(=O)Nc4ccc(C(F)(F)F)nc4)cc3)cn2)cn1 [Compound P-0252, 2-[4-[2-[(1-ethylpyrazol-4-yl)amino]pyrimidin-5-yl]phenyl]-N-[6-(trifluoromethyl)-3-pyridyl]acetamide]
13 | 5.00 to 10.00 | 5.00 to 10.00 | O=C(Cc1ccc(-c2cnc(Nc3cnn(C4CC4)c3)nc2)cc1F)Nc1cncc(C(F)(F)F)c1 [Compound P-0238, 2-[4-[2-[(1-cyclopropylpyrazol-4-yl)amino]pyrimidin-5-yl]-2-fluoro-phenyl]-N-[5-(trifluoromethyl)-3-pyridyl]acetamide]
14 | 5.00 to 10.00 | 5.00 to 10.00 | CCn1cc(Nc2ncc(-c3ccc(CC(=O)Nc4cnc(OC)c(C(F)(F)F)c4)c(F)c3)cn2)cn1 [Compound P-0259, 2-[4-[2-[(1-ethylpyrazol-4-yl)amino]pyrimidin-5-yl]-2-fluoro-phenyl]-N-[6-methoxy-5-(trifluoromethyl)-3-pyridyl]acetamide]
15 | 5.00 to 10.00 | 5.00 to 10.00 | CCn1cc(Nc2ncc(-c3ccc(CC(=O)Nc4cnc(C)c(C(F)(F)F)c4)c(F)c3)cn2)cn1 [Compound P-0261, 2-[4-[2-[(1-ethylpyrazol-4-yl)amino]pyrimidin-5-yl]-2-fluoro-phenyl]-N-[6-methyl-5-(trifluoromethyl)-3-pyridyl]acetamide]
16 | 5.00 to 10.00 | 5.00 to 10.00 | Cn1cc(Nc2ncc(-c3cc(F)c(CC(=O)Nc4cc(C(F)(F)F)ccn4)cc3F)cn2)cn1 [Compound P-0019, 2-[2,5-difluoro-4-[2-[(1-methylpyrazol-4-yl)amino]pyrimidin-5-yl]phenyl]-N-[4-(trifluoromethyl)-2-pyridyl]acetamide]
17 | 5.00 to 10.00 | 5.00 to 10.00 | O=C(Cc1ccc(-c2cnc(Nc3cnn(C4CC4)c3)nc2)cc1F)Nc1cc(C(F)(F)F)ccn1 [Compound P-0244, 2-[4-[2-[(1-cyclopropylpyrazol-4-yl)amino]pyrimidin-5-yl]-2-fluoro-phenyl]-N-[4-(trifluoromethyl)-2-pyridyl]acetamide]
18 | 5.00 to 10.00 | 5.00 to 10.00 | CCOc1n[nH]c2ncc(-c3ccc(CC(=O)Nc4cnc(C)c(C(F)(F)F)c4)cc3)cc12 [Compound P-0217, 2-[4-(3-ethoxy-1H-pyrazolo[3,4-b]pyridin-5-yl)phenyl]-N-[6-methyl-5-(trifluoromethyl)-3-pyridyl]acetamide]
19 | 5.00 to 10.00 | 5.00 to 10.00 | COc1ncc(NC(=O)Cc2ccc(-c3cnc(Nc4cnn(C)c4)nc3)c(F)c2)cc1C(F)(F)F [Compound P-0206, 2-[3-fluoro-4-[2-[(1-methylpyrazol-4-yl)amino]pyrimidin-5-yl]phenyl]-N-[6-methoxy-5-(trifluoromethyl)-3-pyridyl]acetamide]
20 | 5.00 to 10.00 | 5.00 to 10.00 | COCCn1cc(Nc2ncc(-c3ccc(CC(=O)Nc4ccc(C(F)(F)F)nc4)c(F)c3)cn2)cn1 [Compound P-0268, 2-[2-fluoro-4-[2-[[1-(2-methoxyethyl)pyrazol-4-yl]amino]pyrimidin-5-yl]phenyl]-N-[6-(trifluoromethyl)-3-pyridyl]acetamide]
21 | 5.00 to 10.00 | 5.00 to 10.00 | CCn1cc(Nc2ncc(-c3ccc(CC(=O)Nc4cc(C(F)(F)F)ccn4)c(F)c3)cn2)cn1 [Compound P-0255, 2-[4-[2-[(1-ethylpyrazol-4-yl)amino]pyrimidin-5-yl]-2-fluoro-phenyl]-N-[4-(trifluoromethyl)-2-pyridyl]acetamide]
